# PubChem BioAssay AID330 (DTP/NCI, 2004)
# Where “and” joins values, the source holds several entries; their conditions need not be identical. Identical values can stand only once. Toxic doses and inconclusive results are not listed.
# Test system: P388 leukemia ip, CD2F1 mice, survival T/C
# Experiment: NCI In Vivo Anticancer Drug Screen. Data for tumor model P388 Leukemia (intraperitoneal) in CD2F1 (CDF1) mice
# Settings: endpoint: median survival time, higher = longer survival
# Summary of the method: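 Mice carrying the transplanted tumor received test compound or vehicle. Survival was recorded in each group, and the value is the treated-group measurement divided by that of the vehicle-treated control group.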
# [1] = dose: 100.0 mg/kg/injection, schedule: Q04DX003 (ip), vehicle: saline
# [2] = dose: 200.0 mg/kg/injection, schedule: Q04DX003 (ip), vehicle: saline
# [3] = dose: 400.0 mg/kg/injection, schedule: Q04DX003 (ip), vehicle: saline
# [4] = dose: 12.5 mg/kg/injection, schedule: Q01DX009 (ip), vehicle: saline with Tween-80
# [5] = dose: 25.0 mg/kg/injection, schedule: Q01DX009 (ip), vehicle: saline with Tween-80
# [6] = dose: 50.0 mg/kg/injection, schedule: Q01DX005 (ip), vehicle: saline with Tween-80
# [7] = dose: 50.0 mg/kg/injection, schedule: Q01DX005 (ip), vehicle: Klucel (hydroxypropylcellulose) (HPC)
# [8] = dose: 100.0 mg/kg/injection, schedule: Q01DX005 (ip), vehicle: Klucel (hydroxypropylcellulose) (HPC)
# [9] = dose: 200.0 mg/kg/injection, schedule: Q01DX005 (ip), vehicle: Klucel (hydroxypropylcellulose) (HPC)
# [10] = dose: 50.0 mg/kg/injection, schedule: Q01DX009 (ip), vehicle: saline with Tween-80
# [11] = dose: 100.0 mg/kg/injection, schedule: Q01DX009 (ip), vehicle: saline with Tween-80
# [12] = dose: 60.0 mg/kg/injection, schedule: Q01DX005 (ip), vehicle: saline with Tween-80
# [13] = dose: 120.0 mg/kg/injection, schedule: Q01DX005 (ip), vehicle: saline with Tween-80
# [14] = dose: 200.0 mg/kg/injection, schedule: Q01DX009 (ip), vehicle: saline with Tween-80
structure (smiles),measurement,setting,value
CS(=O)(=O)OCCCCCCCCCCCCCC1C=CCC1 (configuration not stated),T/C,[1],99 % of control
same,T/C,[2],103 % of control
same,T/C,[3],99 % of control
NC(CSC(c1ccccc1)(c1ccccc1)c1ccc(CO)cc1)C(=O)O (configuration not stated),T/C,[4],118 % of control
COC(=O)C(CCC1NCCc2c1[nH]c1ccccc21)(Sc1ccccc1)Sc1ccccc1 (configuration not stated),T/C,"dose: 60.0 mg/kg/injection, schedule: Q01DX005 (ip), vehicle: Klucel (hydroxypropylcellulose) (HPC)",108 % of control
same,T/C,"dose: 120.0 mg/kg/injection, schedule: Q01DX005 (ip), vehicle: Klucel (hydroxypropylcellulose) (HPC)",105 % of control
same,T/C,"dose: 240.0 mg/kg/injection, schedule: Q01DX005 (ip), vehicle: Klucel (hydroxypropylcellulose) (HPC)",103 % of control
O=C1c2cscc2C(=O)c2c(Cl)sc(Cl)c21,T/C,[5],95 % of control
CC(C)=CC(=O)Sc1ccccc1,T/C,"dose: 12.5 mg/kg/injection, schedule: Q01DX005 (ip), vehicle: saline with Tween-80",101 % of control
same,T/C,"dose: 25.0 mg/kg/injection, schedule: Q01DX005 (ip), vehicle: saline with Tween-80",94 % of control
same,T/C,[6],102 % of control and 104 % of control
CCOC(=O)/C=C(/C)Nc1ccc2c(c1)OCO2,T/C,[7],103 % of control
same,T/C,[8],110 % of control
same,T/C,[9],111 % of control
O=[N+]([O-])c1cn[n+]([O-])c2ccccc12,T/C,[4],119 % of control
same,T/C,[10],86 % of control
CCCCNCCC(O)c1cc2ccc(C(F)(F)F)cc2c2cc(C(F)(F)F)ccc12 (configuration not stated),T/C,[10],86 % of control
same,T/C,[11],91 % of control
CNC(=S)NNc1ccc(Cl)c(Cl)c1,T/C,"dose: 25.0 mg/kg/injection, schedule: Q01DX009 (ip), vehicle: other",112 % of control
same,T/C,"dose: 50.0 mg/kg/injection, schedule: Q01DX009 (ip), vehicle: other",108 % of control
CC1(C)CC[C@]2(C(=O)O)CC[C@]3(C)C(=CC[C@@H]4[C@@]5(C)CC[C@H](O)C(C)(C)[C@@H]5CC[C@]43C)[C@@H]2C1,T/C,[4],108 % of control
same,T/C,[5],99 % of control
O=c1[nH]cc(NS(=O)(=O)c2ccccc2)c(=O)[nH]1,T/C,[12],105 % of control
same,T/C,[13],101 % of control
Nc1nc2c(c(=O)[nH]1)CN(CCCN1CCN(CCCN3CNc4nc(N)[nH]c(=O)c4C3)CC1)CN2,T/C,[7],94 % of control
same,T/C,[8],99 % of control
same,T/C,[9],91 % of control
Cc1ccc(S)c(S)c1,T/C,"dose: 25.0 mg/kg/injection, schedule: Q01DX009 (ip), vehicle: saline",100 % of control
same,T/C,"dose: 50.0 mg/kg/injection, schedule: Q01DX009 (ip), vehicle: saline",108 % of control
same,T/C,"dose: 100.0 mg/kg/injection, schedule: Q01DX009 (ip), vehicle: saline",100 % of control and 106 % of control and 113 % of control
same,T/C,"dose: 200.0 mg/kg/injection, schedule: Q01DX009 (ip), vehicle: saline",101 % of control
same,T/C,"dose: 400.0 mg/kg/injection, schedule: Q01DX009 (ip), vehicle: saline",94 % of control
same,T/C,"dose: 600.0 mg/kg/injection, schedule: Q01DX009 (ip), vehicle: saline",91 % of control
COCCCNC(=S)N/N=C/c1cccc(OC)c1O,T/C,[10],101 % of control
same,T/C,[11],111 % of control
same,T/C,[14],88 % of control
Cn1c(=O)c2c(ncn2CCNC(c2ccccc2)c2ccc(Br)cc2)n(C)c1=O (configuration not stated),T/C,"dose: 6.25 mg/kg/injection, schedule: Q01DX005 (ip), vehicle: alkali diluted with saline",100 % of control
same,T/C,"dose: 12.5 mg/kg/injection, schedule: Q01DX005 (ip), vehicle: alkali diluted with saline",96 % of control
same,T/C,"dose: 25.0 mg/kg/injection, schedule: Q01DX005 (ip), vehicle: alkali diluted with saline",107 % of control
O=C(O)c1c[n+]([O-])ccc1OCc1ccccc1,T/C,[1],100 % of control
same,T/C,[2],98 % of control
same,T/C,[3],94 % of control
BrP(Cc1ccccc1-c1ccccc1CP(Br)(c1ccccc1)(c1ccccc1)c1ccccc1)(c1ccccc1)(c1ccccc1)c1ccccc1,T/C,"dose: 1.56 mg/kg/injection, schedule: Q01DX009 (ip), vehicle: saline",103 % of control
same,T/C,"dose: 3.12 mg/kg/injection, schedule: Q01DX009 (ip), vehicle: saline",102 % of control
same,T/C,"dose: 6.25 mg/kg/injection, schedule: Q01DX009 (ip), vehicle: saline",100 % of control and 103 % of control
O=C(NCc1ccccc1)C1C(=O)N(Cc2ccccc2)C(=O)/C1=N/O (configuration not stated),T/C,[6],100 % of control
same,T/C,"dose: 100.0 mg/kg/injection, schedule: Q01DX005 (ip), vehicle: saline with Tween-80",100 % of control
same,T/C,"dose: 200.0 mg/kg/injection, schedule: Q01DX005 (ip), vehicle: saline with Tween-80",100 % of control
CSCCC(NC(=O)C(C)NC(=O)OCc1ccccc1)C(=O)O (configuration not stated),T/C,[7],99 % of control
same,T/C,[8],101 % of control
same,T/C,[9],95 % of control
COC1=CC(=N/Br)/C=CC/1=N/Br,T/C,"dose: 50.0 mg/kg/injection, schedule: Q01DX005 (ip), vehicle: saline",98 % of control and 103 % of control
same,T/C,"dose: 100.0 mg/kg/injection, schedule: Q01DX005 (ip), vehicle: saline",99 % of control and 100 % of control and 105 % of control
same,T/C,"dose: 200.0 mg/kg/injection, schedule: Q01DX005 (ip), vehicle: saline",99 % of control and 107 % of control and 120 % of control
CSCCC(NC(=O)CNC(=O)OCc1ccccc1)C(=O)O (configuration not stated),T/C,"dose: 25.0 mg/kg/injection, schedule: Q01DX009 (ip), vehicle: Klucel (hydroxypropylcellulose) (HPC)",94 % of control
same,T/C,"dose: 50.0 mg/kg/injection, schedule: Q01DX009 (ip), vehicle: Klucel (hydroxypropylcellulose) (HPC)",95 % of control
same,T/C,"dose: 100.0 mg/kg/injection, schedule: Q01DX009 (ip), vehicle: Klucel (hydroxypropylcellulose) (HPC)",100 % of control
same,T/C,"dose: 200.0 mg/kg/injection, schedule: Q01DX009 (ip), vehicle: Klucel (hydroxypropylcellulose) (HPC)",93 % of control
same,T/C,"dose: 400.0 mg/kg/injection, schedule: Q01DX009 (ip), vehicle: Klucel (hydroxypropylcellulose) (HPC)",87 % of control
Cc1c(C(=O)CC2OC(=O)C(Cl)=C2Cl)c2ccccc2n1C(=O)Nc1ccc(Cl)cc1 (configuration not stated),T/C,[12],93 % of control
same,T/C,[13],99 % of control
same,T/C,"dose: 240.0 mg/kg/injection, schedule: Q01DX005 (ip), vehicle: saline with Tween-80",94 % of control
N#C/C(N)=C(\C#N)N=Cc1ccc(-c2ccccc2)cc1,T/C,"dose: 100.0 mg/kg/injection, schedule: Q01DX001 (ip), vehicle: saline with Tween-80",90 % of control
same,T/C,"dose: 200.0 mg/kg/injection, schedule: Q01DX001 (ip), vehicle: saline with Tween-80",90 % of control
same,T/C,"dose: 400.0 mg/kg/injection, schedule: Q01DX001 (ip), vehicle: saline with Tween-80",86 % of control
O=CNC(Cc1ccc(O)cc1)C(=O)O (configuration not stated),T/C,"dose: 12.5 mg/kg/injection, schedule: Q01DX005 (ip), vehicle: Klucel (hydroxypropylcellulose) (HPC)",102 % of control and 105 % of control
same,T/C,"dose: 25.0 mg/kg/injection, schedule: Q01DX005 (ip), vehicle: Klucel (hydroxypropylcellulose) (HPC)",100 % of control and 104 % of control
same,T/C,[8],101 % of control and 107 % of control
same,T/C,[9],96 % of control
CN(C)CCOc1ccc2c(c1)C(=O)/C(=C\c1ncc([N+](=O)[O-])n1C)C2,T/C,[4],113 % of control
same,T/C,[5],123 % of control and 94 % of control
same,T/C,[10],121 % of control
same,T/C,[11],123 % of control
COSc1ccc(C)cc1,T/C,[1],108 % of control
same,T/C,[2],100 % of control
CC(=O)OCC1OC(Sc2ccc([N+](=O)[O-])cc2)C(OC(C)=O)C(OC(C)=O)C1OC(C)=O (configuration not stated),T/C,"dose: 15.0 mg/kg/injection, schedule: Q01DX005 (ip), vehicle: saline with Tween-80",100 % of control
same,T/C,"dose: 30.0 mg/kg/injection, schedule: Q01DX005 (ip), vehicle: saline with Tween-80",98 % of control
same,T/C,[12],91 % of control
CN(CCC[NH-])CCC[NH-].[Cl][Pd][Cl],T/C,"dose: 25.0 mg/kg/injection, schedule: Q04DX002 (ip), vehicle: saline",102 % of control
same,T/C,"dose: 50.0 mg/kg/injection, schedule: Q04DX002 (ip), vehicle: saline",102 % of control
same,T/C,"dose: 100.0 mg/kg/injection, schedule: Q04DX002 (ip), vehicle: saline",98 % of control
CCOC(=O)C(Br)c1cccc(OC)c1 (configuration not stated),T/C,[11],91 % of control
same,T/C,[14],95 % of control
same,T/C,"dose: 400.0 mg/kg/injection, schedule: Q01DX009 (ip), vehicle: saline with Tween-80",95 % of control
Nc1ccc(C(=O)Nc2ccccc2N)cc1,T/C,"dose: 100.0 mg/kg/injection, schedule: Q04DX003 (ip), vehicle: saline with Tween-80",100 % of control
same,T/C,"dose: 200.0 mg/kg/injection, schedule: Q04DX003 (ip), vehicle: saline with Tween-80",99 % of control
same,T/C,"dose: 400.0 mg/kg/injection, schedule: Q04DX003 (ip), vehicle: saline with Tween-80",108 % of control
